Results from patent publication US9738655B2, “Tetrahydroisoquinolines containing substituted azoles as factor XIa inhibitors” (BRISTOL-MYERS SQUIBB COMPANY, priority 2013, dated 2017).
Counter-ions that a name gives are not always drawn. Like-named read-outs stand apart in the source and are kept apart here.

Key:
[1] = biological target: purified human plasma kallikrein (Homo sapiens (Human), UniProt P03952); assay: Plasma kallikrein enzyme inhibition assay (chromogenic substrate S-2302); type: biochemical
purified human plasma kallikrein, sequence (P03952 391-638): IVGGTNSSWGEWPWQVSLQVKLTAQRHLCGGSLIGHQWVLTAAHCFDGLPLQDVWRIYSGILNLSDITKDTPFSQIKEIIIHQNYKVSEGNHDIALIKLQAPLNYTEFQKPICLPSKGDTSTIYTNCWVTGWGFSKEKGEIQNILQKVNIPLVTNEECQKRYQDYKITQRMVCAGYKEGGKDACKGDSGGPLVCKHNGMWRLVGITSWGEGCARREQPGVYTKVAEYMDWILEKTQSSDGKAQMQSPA
purified human plasma kallikrein, sequence (P03952 20-390 partner): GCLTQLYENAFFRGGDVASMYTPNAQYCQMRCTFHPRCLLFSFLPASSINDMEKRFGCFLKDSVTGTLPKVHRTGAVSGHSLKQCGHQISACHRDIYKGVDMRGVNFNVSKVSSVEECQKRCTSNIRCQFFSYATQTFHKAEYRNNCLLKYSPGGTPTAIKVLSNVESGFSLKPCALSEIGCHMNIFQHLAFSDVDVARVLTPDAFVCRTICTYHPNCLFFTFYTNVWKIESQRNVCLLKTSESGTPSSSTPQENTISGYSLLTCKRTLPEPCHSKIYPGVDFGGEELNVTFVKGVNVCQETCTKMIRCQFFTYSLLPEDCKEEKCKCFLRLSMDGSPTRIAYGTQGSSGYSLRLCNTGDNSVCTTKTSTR

[2] = biological target: purified human Factor XIa (Homo sapiens (Human), UniProt P03951); assay: Factor XIa enzyme inhibition assay (chromogenic substrate S-2366)
purified human Factor XIa, sequence (P03951 388-625): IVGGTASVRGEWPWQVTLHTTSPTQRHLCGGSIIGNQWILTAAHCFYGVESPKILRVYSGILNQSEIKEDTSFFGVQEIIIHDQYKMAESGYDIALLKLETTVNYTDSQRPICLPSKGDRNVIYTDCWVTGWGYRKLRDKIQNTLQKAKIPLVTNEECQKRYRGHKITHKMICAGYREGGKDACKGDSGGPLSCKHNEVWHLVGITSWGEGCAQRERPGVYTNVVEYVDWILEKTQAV
purified human Factor XIa, sequence (P03951 19-387 partner): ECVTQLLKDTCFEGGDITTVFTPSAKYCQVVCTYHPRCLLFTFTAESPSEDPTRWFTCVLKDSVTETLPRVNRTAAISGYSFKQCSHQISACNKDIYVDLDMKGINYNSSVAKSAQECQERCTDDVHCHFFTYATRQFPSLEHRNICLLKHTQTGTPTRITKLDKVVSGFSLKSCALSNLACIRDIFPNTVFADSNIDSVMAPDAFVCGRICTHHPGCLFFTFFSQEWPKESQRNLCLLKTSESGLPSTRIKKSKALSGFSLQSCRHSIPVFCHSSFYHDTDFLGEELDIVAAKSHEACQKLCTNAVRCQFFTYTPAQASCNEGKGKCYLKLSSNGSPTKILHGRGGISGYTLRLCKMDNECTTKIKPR
Experimental: The effectiveness of compounds of the present invention as inhibitors of the coagulation Factors XIa, VIIa, IXa, Xa, XIIa, plasma kallikrein or thrombin, can be determined using a relevant purified serine protease, respectively, and an appropriate synthetic substrate. The rate of hydrolysis of the chromogenic or fluorogenic substrate by the relevant serine protease was measured both in the absence and presence of compounds of the present invention. […] A decrease in the rate of absorbance or fluorescence change in the presence of inhibitor is indicative of enzyme inhibition. […] The results of this assay are expressed as the inhibitory constant, Ki.
Values of Ki were determined by allowing the protease to react with the substrate in the presence of the inhibitor.

[3] = measured at 25° C. (no asterisk)
[4] = read-out: Factor XIa Ki, measured at 25° C.

| Structure (SMILES) | Ki [1, 3] | Ki [2, 4] | Ki [2] | Ki ([1]; measured at 37° C. (*)) |
| --- | --- | --- | --- | --- |
| COc1ccc(NC(=O)C2c3cccc(N4CCC(N(C)C)CC4)c3CCN2C(=O)c2cnn(-c3cccc(Cl)c3F)c2)cc1 (centres unmarked) [Example 97, 2-(1-(3-chloro-2-fluorophenyl)-1H-pyrazole-4-carbonyl)-5-(4-(dimethylamino)piperidin-1-yl)-N-(4-methoxyphenyl)-1,2,3,4-tetrahydroisoquinoline-1-carboxamide, TFA salt] | 21.7 nM | 9.13 nM | – | – |
| Cc1nc(-c2ccc(NC(=O)C3c4cccc(N5CCC(N(C)C)CC5)c4CCN3C(=O)c3cn(-c4cccc(Cl)c4F)nn3)cc2)no1 (centres unmarked) [Example 98, 2-(1-(3-Chloro-2-fluorophenyl)-1H-1,2,3-triazole-4-carbonyl)-5-(4-(dimethylamino)piperidin-1-yl)-N-(4-(5-methyl-1,2,4-oxadiazol-3-yl)phenyl)-1,2,3,4-tetrahydroisoquinoline-1-carboxamide, bis-TFA salt] | 5.2 nM | 6.69 nM | – | – |
| CN(C)C1CCN(c2cccc3c2CCN(C(=O)c2cn(-c4cccc(Cl)c4F)nn2)C3C(=O)Nc2ccc(C(N)=O)cc2)CC1 (centres unmarked) [Example 99, N-(4-Carbamoylphenyl)-2-(1-(3-chloro-2-fluorophenyl)-1H-1,2,3-triazole-4-carbonyl)-5-(4-(dimethylamino)piperidin-1-yl)-1,2,3,4-tetrahydroisoquinoline-1-carboxamide, bis-TFA salt] | 2.74 nM | < 5 nM | – | – |
| CN(C)C1CCN(c2cccc3c2CCN(C(=O)c2cn(-c4cccc(Cl)c4F)nn2)[C@H]3C(=O)Nc2ccc(C(N)=O)cc2)CC1 [Example 100, (R)-N-(4-Carbamoylphenyl)-2-(1-(3-chloro-2-fluorophenyl)-1H-1,2,3-triazole-4-carbonyl)-5-(4-(dimethylamino)piperidin-1-yl)-1,2,3,4-tetrahydroisoquinoline-1-carboxamide, bis-TFA salt] | 494 nM | 289 nM | – | – |
| CN(C)C1CCN(c2cccc3c2CCN(C(=O)c2cn(-c4cccc(Cl)c4F)nn2)[C@@H]3C(=O)Nc2ccc(C(N)=O)cc2)CC1 [Example 101, (S)-N-(4-Carbamoylphenyl)-2-(1-(3-chloro-2-fluorophenyl)-1H-1,2,3-triazole-4-carbonyl)-5-(4-(dimethylamino)piperidin-1-yl)-1,2,3,4-tetrahydroisoquinoline-1-carboxamide, bis-TFA salt] | 1.75 nM | < 5 nM | – | – |
| CN(C)C1CCN(c2cccc3c2CCN(C(=O)c2cn(-c4cccc(Cl)c4F)nn2)C3C(=O)Nc2ccc(-c3cn[nH]c3)cc2)CC1 (centres unmarked) [Example 102, N-(4-(1H-Pyrazol-4-yl)phenyl)-2-(1-(3-chloro-2-fluorophenyl)-1H-1,2,3-triazole-4-carbonyl)-5-(4-(dimethylamino)piperidin-1-yl)-1,2,3,4-tetrahydroisoquinoline-1-carboxamide, bis-TFA salt] | 1.39 nM | < 5 nM | – | – |
| CN(C)C1CCN(c2cccc3c2CCN(C(=O)c2cn(-c4cccc(Cl)c4F)nn2)[C@H]3C(=O)Nc2ccc(-c3cn[nH]c3)cc2)CC1 [Example 103, (R)-N-(4-(1H-Pyrazol-4-yl)phenyl)-2-(1-(3-chloro-2-fluorophenyl)-1H-1,2,3-triazole-4-carbonyl)-5-(4-(dimethylamino)piperidin-1-yl)-1,2,3,4-tetrahydroisoquinoline-1-carboxamide, bis-TFA salt] | 34 nM | 17.9 nM | – | – |
| CN(C)C1CCN(c2cccc3c2CCN(C(=O)c2cn(-c4cccc(Cl)c4F)nn2)[C@@H]3C(=O)Nc2ccc(-c3cn[nH]c3)cc2)CC1 [Example 104, (S)-N-(4-(1H-Pyrazol-4-yl)phenyl)-2-(1-(3-chloro-2-fluorophenyl)-1H-1,2,3-triazole-4-carbonyl)-5-(4-(dimethylamino)piperidin-1-yl)-1,2,3,4-tetrahydroisoquinoline-1-carboxamide, bis-TFA salt] | 0.96 nM | < 5 nM | – | – |
| CN(C)C1CCN(c2cccc3c2CCN(C(=O)c2cn(-c4cccc(Cl)c4F)nn2)C3C(=O)Nc2ccc(-c3nnn[nH]3)cc2)CC1 (centres unmarked) [Example 105, N-(4-(1H-Tetrazol-5-yl)phenyl)-2-(1-(3-chloro-2-fluorophenyl)-1H-1,2,3-triazole-4-carbonyl)-5-(4-(dimethylamino)piperidin-1-yl)-1,2,3,4-tetrahydroisoquinoline-1-carboxamide, bis-TFA salt] | 1.69 nM | < 5 nM | – | – |
| CN1CCC2(CCN(c3cccc4c3CCN(C(=O)c3cn(-c5cccc(Cl)c5F)nn3)C4C(=O)Nc3ccc(C(=O)O)cc3)CC2)C1=O (centres unmarked) [Example 106, 4-(2-(1-(3-Chloro-2-fluorophenyl)-1H-1,2,3-triazole-4-carbonyl)-5-(2-methyl-1-oxo-2,8-diazaspiro[4.5]decan-8-yl)-1,2,3,4-tetrahydroisoquinoline-1-carboxamido)benzoic acid, TFA salt] | 7.58 nM | < 5 nM | – | – |
| CN1CCC2(CCN(c3cccc4c3CCN(C(=O)c3cnn(-c5cccc(Cl)c5F)c3)C4C(=O)Nc3ccc(C(=O)O)cc3)CC2)C1=O (centres unmarked) [Example 107, 4-(2-(1-(3-Chloro-2-fluorophenyl)-1H-pyrazole-4-carbonyl)-5-(2-methyl-1-oxo-2,8-diazaspiro[4.5]decan-8-yl)-1,2,3,4-tetrahydroisoquinoline-1-carboxamido)benzoic acid, TFA salt] | 12.5 nM | < 5 nM | – | – |
| N#Cc1cccc2c1CCN(C(=O)c1cn(-c3cccc(Cl)c3F)nn1)C2C(=O)Nc1ccc(C(=O)O)cc1 (centres unmarked) [Example 108, 4-(2-(1-(3-Chloro-2-fluorophenyl)-1H-1,2,3-triazole-4-carbonyl)-5-cyano-1,2,3,4-tetrahydroisoquinoline-1-carboxamido)benzoic acid] | 50 nM | 48.8 nM | – | – |
| NCc1cccc2c1CCN(C(=O)c1cn(-c3cccc(Cl)c3F)nn1)C2C(=O)Nc1ccc(C(=O)O)cc1 (centres unmarked) [Example 109, 4-(5-(Aminomethyl)-2-(1-(3-chloro-2-fluorophenyl)-1H-1,2,3-triazole-4-carbonyl)-1,2,3,4-tetrahydroisoquinoline-1-carboxamido)benzoic acid, TFA salt] | 2.29 nM | 14.5 nM | – | – |
| O=C(O)c1ccc(NC(=O)C2c3cccc(Br)c3CCN2C(=O)c2cn(-c3cccc(Cl)c3F)nn2)cc1 (centres unmarked) [Example 110, 4-(5-Bromo-2-(1-(3-chloro-2-fluorophenyl)-1H-1,2,3-triazole-4-carbonyl)-1,2,3,4-tetrahydroisoquinoline-1-carboxamido)benzoic acid] | 23 nM | 72.7 nM | – | – |
| O=C(O)c1ccc(NC(=O)C2c3cccc(OC4CCNCC4)c3CCN2C(=O)c2cn(-c3cccc(Cl)c3F)nn2)cc1 (centres unmarked) [Example 112, 4-(2-(1-(3-Chloro-2-fluorophenyl)-1H-1,2,3-triazole-4-carbonyl)-5-(piperidin-4-yloxy)-1,2,3,4-tetrahydroisoquinoline-1-carboxamido)benzoic acid, TFA salt] | 3.16 nM | < 5 nM | – | – |
| COCCOc1cccc2c1CCN(C(=O)c1cn(-c3cccc(Cl)c3F)nn1)C2C(=O)Nc1ccc(C(=O)O)cc1 (centres unmarked) [Example 113, 4-(2-(1-(3-Chloro-2-fluorophenyl)-1H-1,2,3-triazole-4-carbonyl)-5-(2-methoxyethoxy)-1,2,3,4-tetrahydroisoquinoline-1-carboxamido)benzoic acid] | 11.9 nM | – | < 5 nM | – |
| CCOC(=O)Cc1ccc(NC(=O)C2c3cccc(-c4ccc(C(=O)NC)nc4)c3CCN2C(=O)c2cn(-c3cccc(Cl)c3F)nn2)cc1 (centres unmarked) [Example 116, Ethyl 2-(4-(2-(1-(3-Chloro-2-fluorophenyl)-1H-1,2,3-triazole-4-carbonyl)-5-(6-(methylcarbamoyl)pyridin-3-yl)-1,2,3,4-tetrahydroisoquinoline-1-carboxamido)phenyl)acetate, TFA salt] | 128 nM | 13.6 nM | – | – |
| CNC(=O)c1ccc(-c2cccc3c2CCN(C(=O)c2cn(-c4cccc(Cl)c4F)nn2)C3C(=O)Nc2ccc(CC(=O)O)cc2)cn1 (centres unmarked) [Example 117, 2-(4-(2-(1-(3-Chloro-2-fluorophenyl)-1H-1,2,3-triazole-4-carbonyl)-5-(6-(methylcarbamoyl)pyridin-3-yl)-1,2,3,4-tetrahydroisoquinoline-1-carboxamido)phenyl)acetic acid, TFA salt] | 16.3 nM | < 5 nM | – | – |
| COC1CCN(c2cccc3c2CCN(C(=O)c2cn(-c4cccc(Cl)c4F)nn2)C3C(=O)Nc2ccccc2)CC1 (centres unmarked) [Example 118, 2-(1-(3-Chloro-2-fluorophenyl)-1H-1,2,3-triazole-4-carbonyl)-5-(4-methoxypiperidin-1-yl)-N-phenyl-1,2,3,4-tetrahydroisoquinoline-1-carboxamide, TFA salt] | – | 38 nM | – | 250 nM |
| O=C(Nc1ccccc1)C1c2cccc(Br)c2CCN1C(=O)c1cn(-c2cccc(Cl)c2F)nn1 (centres unmarked) [Example 119, 5-Bromo-2-(1-(3-chloro-2-fluorophenyl)-1H-1,2,3-triazole-4-carbonyl)-N-phenyl-1,2,3,4-tetrahydroisoquinoline-1-carboxamide] | – | 4440 nM | – | 1100 nM |
| O=C(Nc1ccc(CO)cc1)C1c2cccc(Br)c2CCN1C(=O)c1cn(-c2cccc(Cl)c2F)nn1 (centres unmarked) [Example 120, 5-Bromo-2-(1-(3-chloro-2-fluorophenyl)-1H-1,2,3-triazole-4-carbonyl)-N-(4-(hydroxymethyl)phenyl)-1,2,3,4-tetrahydroisoquinoline-1-carboxamide] | – | 3940 nM | – | 517 nM |
| COC1CCN(c2cccc3c2CCN(C(=O)c2cn(-c4cccc(Cl)c4F)nn2)[C@H]3C(=O)Nc2ccc(CO)cc2)CC1 [Example 121, (R)-2-(1-(3-Chloro-2-fluorophenyl)-1H-1,2,3-triazole-4-carbonyl)-N-(4-(hydroxymethyl)phenyl)-5-(4-methoxypiperidin-1-yl)-1,2,3,4-tetrahydroisoquinoline-1-carboxamide] | – | 1050 nM | – | 7900 nM |
